One series relates to AML cell line (MoLM-13). Nature of the series: CCK-8 cell viability, MoLM-13. Type of series: cell-based, human. To be noted: 1 uM, 5 uM, 10 uM; 48 hours. How it is done: In this example, activities of NC5, Compound III, and the known chemotherapeutic, Cytarabine, were evaluated in the AML cell line (MoLM-13). MoLM-13 cells were collected and seeded at 5,000 cells/well in 96-well plates. The cells were incubated for 24 hours before the addition of either DMSO control or drug at various concentrations. After an additional 48 hours of incubation, 3 μL of CCK-8 was added to every well and incubated at 37° C. for 3 hours. Absorbance was measured at 460 nm in a plate reader. […] The related absorbance was normalized and plotted as line graphs. p-values were determined through two tails student t-tests (*=p<0.5, **=p<0.01, ***=p<0.001).

Series [1] relates to PBNK cells killing activity towards MDA-MB-231. Nature of the series: Cr51 release assay, PBNK killing of MDA-MB-231. Type of series: cell-based. Conditions: 1 uM overnight. On the procedure:
PBNK cells were incubated with 1 uM NC5 or Compound III overnight, then cells were harvested for Cr51 release assay to check cell cytotoxicity. […] The star symbol indicates the significance of vehicle control vs. NC5 of the indicated E:T ratios. *p<0.05, **p<0.01, n=3.

The next series in a line: Thermodynamic solubility. To be noted: thermodynamic from solid. Type of series: physicochemical. How it is done: In this example, solubility measurement assays were performed using a phosphate buffer (also referred to as “PB”) system and a water system to evaluate thermodynamic solubility. The PB system was at a pH of 7.4 to mimic in vivo environments. For the PB system, the values were determined to be NC5: Thermodynamic Solubility pH=7.4<0.42 μg/mL; Compound III: Thermodynamic Solubility pH=7.4<0.48 μg/mL; and Compound I: Thermodynamic Solubility pH=7.4<0.48 μg/mL. Results for the water assay were as follows: NC5: Thermodynamic Solubility Water<0.42 μg/mL; Compound III: Thermodynamic Solubility Water<0.48 μg/mL; and Compound I: Thermodynamic Solubility Water<0.48 μg/mL.

Another series has as its system PBMCs. Nature of the series: MTT assay, PBMCs from healthy donors. Type of series: cell-based, human. On the procedure: Peripheral blood mononuclear cells (PBMCs, line with the symbol □) were used to determine the specificities of the cytotoxic effects of Pomiferin. The survival curve of PBMC-average is from four different healthy donors. […]
MTT assay—The MTT assay was used to detect cell proliferation. Briefly, cells were plated in a 96-well plate at a density of 50,000 cells/well in 200 μl of culture medium with candidate drugs to be tested (DMSO as a negative control). The treated cells were incubated for four hours a 37° C. with a 5% CO2 incubator to allow dark crystals to form at the bottom of the wells. […] After aspirating the culture medium from each well, 100 μl of crystal dissolving solution was added to each well and incubated for 10 minutes at RT. The signal was quantified by measuring the absorbance in each sample at 570 nm using a microplate reader.
For orientation: Tetrazolium assays rely on reduction of a dye to a coloured formazan, in cell work by metabolically active cells.

Another series deals with PBMC cells. Nature of the series: Annexin V/PI apoptosis, PBMC. To be noted: various concentrations, 24 hours. The format is cell-based, human. On the procedure: Annexin V/PI Staining—Experimental cells were collected, washed with 1×PBS, resuspended in the binding buffer, and stained with an Annexin V-FITC assay Kit (Millipore Sigma). The cells were incubated with 50 μg/ml Annexin V in 1× binding buffer at room temperature for 15 minutes, then 10 μg/ml propidium iodide for another 15 minutes and analyzed by flow cytometry (EPICS XL). Annexin V-positive/PI-negative cells were considered early apoptotic, cells with both Annexin V and PI-positive to be late apoptotic, and Annexin V negative but PI-positive to be “necrotic.” The percent of apoptosis was calculated as the sum of the percentages of both early and late apoptotic cells.
To figure out the features of cytotoxic effects of Pomiferin on breast cancer cells. Pomiferin-treated breast cancer cells were stained with an Annexin V/PI kit and measured them with Flow Cytometry.

Another series concerns the target CrkL (Homo sapiens, UniProt P46109). Type of series: biochemical. An excerpt:
Single-molecule Fluorescence Resonance Energy Transfer (smFRET)—Single-molecule Fluorescence Resonance Energy Transfer (smFRET) was applied to monitor conformations of single molecules. CrkL has two cysteines (a relatively rare amino acid), one in its SH2 and another in SH3C domains. CrkL was mixed with a mixture of equal amounts of Alexa555-maleimide and Alexa647-maleimide (Invitrogen, USA) (10× over protein concentration) to randomly label the two cysteines. The labeled protein was purified from an unreacted dye by gel filtration. Molecules with exactly one donor and acceptor are identified in single-molecule data analysis and used for further analysis. […] The FRET change between non-phosphorylated CrkL and phosphorylated CrkL was measured. The dye-labeled protein was used in in vitro kinase assays with different drugs treatments as described above. smFRET measurements were performed with a prism-type total internal refection microscope (TIRF) where FRET efficiency is calculated from measured donor and acceptor intensities (Id and Ia, respectively) by FRET=Ia/(Id+Ia), as described previously. To surface immobilize 6×His tagged CrkL, the protein was added to the biotinylated 6×His antibody (Thermo Scientific Cat #: MA1-80087) bound to streptavidin, which was adsorbed to a quartz slide. A lipid bilayer was used to passivate the quartz surface. Phosphorylation was performed on the immobilized Crk in situ.
In intramolecular smFRET, non-radiative energy transfer occurs when two fluorophores attached to different parts of one molecule move close together. […] A cysteine-maleimide-based chemistry was used to label both CrkL and mutant (non-phosphorylatable) CrkL-Y207F. CrkL has a cysteine (a relatively rare amino acid) in its SH2 (labeled with AlexaFluor555) and SH3C (labeled with AlexaFluor647). […] Western Blot (WB) and immunoprecipitation (IP) was used to verify that labeled proteins retain the same gross functional properties as wild-type CrkL (e.g., are phosphorylatable and capable of binding SH2 and SH3 ligands). Briefly, site-specific labeled CrkL was mixed with Ab1 in the presence of Mg^2+ and ATP. A single AlphaScreen-identified candidate inhibitor was then added per assay.

From patent publication US20250154180A1, “CRK-LIKE (CRKL) ADAPTOR PROTEIN INHIBITORS AND METHODS OF MAKING AND USING THE SAME” (Rutgers, The State University of New Jersey, priority 2022, published 2025) come the findings set out here.

Molecules are shown by their SMILES. Some results are limits rather than exact numbers.

Sequence of CrkL (P46109 whole entry, the tested form may be a part): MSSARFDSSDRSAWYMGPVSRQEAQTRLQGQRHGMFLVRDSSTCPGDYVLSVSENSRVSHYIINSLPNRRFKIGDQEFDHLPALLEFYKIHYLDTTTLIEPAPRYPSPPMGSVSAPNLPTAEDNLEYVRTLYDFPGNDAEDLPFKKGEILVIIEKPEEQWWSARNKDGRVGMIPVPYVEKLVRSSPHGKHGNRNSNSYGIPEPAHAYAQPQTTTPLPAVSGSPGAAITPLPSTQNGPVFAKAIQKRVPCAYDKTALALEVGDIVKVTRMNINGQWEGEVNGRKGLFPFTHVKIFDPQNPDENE

As to `CC(C)=CCc1c2c(c3occ(-c4ccc(O)c(O)c4)c(=O)c3c1O)C=CC(C)(C)O2` [Pomiferin, 3′,4′,5-Trihydroxy-6″,6″-dimethyl-6-(3-methylbut-2-en-1-yl)-6″H-pyrano[2″,3″:7,8]isoflavone], the “cell viability (CCK-8)” value in the series with AML cell line (MoLM-13) is given as “decreased cell viability”. In addition, the “PBNK cells killing activity (Cr51 release)” value in series [1] was “increased PBNK cells killing activity”. Also, the thermodynamic solubility in “Thermodynamic solubility” (pH 7.4, aqueous buffer) was less than 0.42 µg/mL; in the series “Thermodynamic solubility” (water), less than 0.42 µg/mL. The “cell proliferation (MTT)” value with PBMCs (1 uM, 5 uM and 10 uM, 24 hours) is given as “no statistical difference”. This compound gave an IC50 in the series on PBMCs (Homo sapiens, 72 h, MTT, three days, PBMC average of four healthy donors) of more than 18 µM. Besides, the “sensitivity to Pomiferin (survival percentage, MTT)” value with PBMCs (five M Pomiferin for three days, compared with MDA-MD-231-LUC) is given as “more resistant to Pomiferin inhibition”. In addition, the apoptosis entry with PBMC cells is “limited responses”. In addition, the “inhibition of the higher FRET caused by Ab1 (pCrkL)” value at CrkL (CrkL + Ab1, Mg2+ and ATP) is reported as 55%. The compound also yielded an FRET signal on CrkL (CrkL about 0.4, CrkL+Ab1 about 0.6) of 0.5.

For orientation: thermodynamic solubility means solubility found after equilibrating the solid with the medium. One may read the IC50 as the point on the concentration scale where inhibition reaches its midpoint.
